These results are taken from PMC11091967, “Silicon-Rhodamine Functionalized Evocalcet Probes Potently and Selectively Label Calcium Sensing Receptors In Vitro, In Vivo, and Ex Vivo” (ACS Pharmacology & Translational Science, 2024).

The subject of one data set is HCAR cells. The data set can be described thus: Calcein AM viability assay, HCAR cells, 72 h. Format: cell-based, hamster. The conditions noted are these: for IC50: Cricetulus griseus. How it is done:
The effects of EvoSiR probes and evocalcet on the viability of CCL39 and HCAR cells were evaluated using the Calcein AM assay as described by the manufacturer’s protocol (AAT Bioquest, 22002) with a working concentration of 10 μM. For the assay, cells were incubated in various concentrations of the compounds for 72 h. For positive controls, cells were incubated in culture media containing maximum 10% DMSO in a two-step dilution series for 72 h. Upon incubation in the Calcein AM solution for 1 h at 37 °C, the fluorescence readouts were retrieved using the Tecan GENios pro microplate reader (λex = 485 nm, λem = 535 nm, gain = 25 AU)

The next data set addresses T1, human CaSR (Homo sapiens, UniProt P41180).
T1 construct: host or cells: CCL39 hamster lung fibroblasts stably transfected (HCAR), Geneticin selection
T1 sequence (P41180 20-1078): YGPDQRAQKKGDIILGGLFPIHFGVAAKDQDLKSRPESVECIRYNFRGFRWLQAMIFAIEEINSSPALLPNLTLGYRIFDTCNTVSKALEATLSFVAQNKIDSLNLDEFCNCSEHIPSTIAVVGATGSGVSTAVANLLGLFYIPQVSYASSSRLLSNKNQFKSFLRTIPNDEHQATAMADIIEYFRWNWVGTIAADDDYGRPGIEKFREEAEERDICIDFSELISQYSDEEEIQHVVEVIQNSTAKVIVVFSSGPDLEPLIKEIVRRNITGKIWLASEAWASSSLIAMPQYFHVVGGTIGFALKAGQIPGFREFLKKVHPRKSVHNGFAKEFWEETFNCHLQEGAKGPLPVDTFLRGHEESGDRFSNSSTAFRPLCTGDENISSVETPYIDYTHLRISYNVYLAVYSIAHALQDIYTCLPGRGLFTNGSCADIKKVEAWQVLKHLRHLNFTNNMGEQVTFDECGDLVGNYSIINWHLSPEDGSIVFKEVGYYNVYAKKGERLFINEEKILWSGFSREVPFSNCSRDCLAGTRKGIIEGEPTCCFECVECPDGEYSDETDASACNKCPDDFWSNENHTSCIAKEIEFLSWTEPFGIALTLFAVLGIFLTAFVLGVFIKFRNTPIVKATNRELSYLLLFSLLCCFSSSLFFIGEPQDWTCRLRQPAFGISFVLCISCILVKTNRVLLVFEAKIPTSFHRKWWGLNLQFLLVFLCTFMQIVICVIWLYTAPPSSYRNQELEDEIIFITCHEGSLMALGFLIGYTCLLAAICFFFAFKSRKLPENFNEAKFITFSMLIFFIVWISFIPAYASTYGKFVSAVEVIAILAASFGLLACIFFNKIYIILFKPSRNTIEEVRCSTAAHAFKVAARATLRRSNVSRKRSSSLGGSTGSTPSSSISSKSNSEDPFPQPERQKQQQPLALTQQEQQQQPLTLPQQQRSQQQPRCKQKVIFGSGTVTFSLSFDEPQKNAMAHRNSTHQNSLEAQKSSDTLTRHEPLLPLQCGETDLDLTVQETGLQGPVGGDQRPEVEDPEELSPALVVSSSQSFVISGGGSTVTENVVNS
The data set can be described thus: In vitro labeling of CaSR expressing (HCAR) and control (CCL39) cells, fluorescence microscopy. Format: cell-based. The conditions noted are these: for fold increase in skewness of pixel intensity distribution, CaSR+ (HCAR) vs CaSR- (CCL39) cells: 500 nM probe; for fold mean fluorescence difference between CaSR+ and CaSR- cells: 72 h incubation. How it is done:
HCAR (CaSR+) and CCL39 (CaSR−) cells were kindly obtained from Novartis AG (Basel, Switzerland) and validated in house. The cells were seeded into μ-slide 18 well plates (ibidi, 81816) at a density of 5000 cells per well and were incubated for 24 h under standard culturing conditions. As our preliminary data indicated considerable nonspecific labeling of dying cells and cellular debris, a viability staining was introduced to ensure probe specificity.[29] Thus, after washing twice with HBSS, cells were incubated in 10 μM Calcein AM solution containing 0.02% Pluronic F-127 and 0.1% DMSO for 45 min at 37 °C. The solution was then removed and washed twice in HBSS before the addition of the HBSS solution containing the SiR probes. All probe solutions were protected from light exposure and contained 0.5% DMSO and various concentrations of BSA depending on the experiment. Incubation with the fluorescent probes was 20 min long, after which a single washing step was introduced with HBSS before imaging. Images of the cells (Calcein: FITC channel, SiR: Cy5 channel) were acquired with a Nikon Eclipse TI2 inverted wide-field fluorescence microscope using a 60× magnification oil immersion objective (Nikon CFI Plan Fluor, 60×, NA = 0.85). For each well, a minimum of 3 images were acquired. For each image, cells were segmented to generate labels on the FITC channel postacquisition using the deep neural network-based Cellpose package in Python 3.9 (model_type: cyto2, diameter: 200, flow_threshold: 0.4).[30] To normalize pixel intensity values across images, for each image, a background value was calculated by taking the average pixel intensity value of the pixels in which no cellular label was present and were negative for the EvoSiR label (triangle thresholding used). For each cell, the skewness of the value distribution and the mean of the Cy5 pixel intensities were calculated. The procedure for evaluating the long-term labeling (72 h) of EvoSiR probes on CCL39 and HCAR cells was similar, with the following modifications: images were retrieved using 10× magnification air objectives (Nikon CFI Plan Fluor 10×, NA = 0.3), in the neural network model, the diameter parameter was set to 30, and only the mean Cy5 pixel intensities per cell object were retrieved.

As usually defined, the IC50 is the concentration needed to halve the response being measured.

On to `Cc1cc(C(=O)NCCCCNC(=O)Cc2ccc(N3CC[C@H](N[C@H](C)c4cccc5ccccc45)C3)cc2)ccc1C1=C2C=CC(=[N+](C)C)C=C2[Si](C)(C)c2cc(N(C)C)ccc21` [EvoSiR4], for which, in the data set with HCAR cells, the “effect on viability at 50 μM” value was “significantly reduced”. Besides, in the data set with HCAR cells, the IC50 is 27.3 ± 2.3 µM. For the same compound, the “fold increase in skewness of pixel intensity distribution, CaSR+ (HCAR) vs CaSR- (CCL39) cells” value on human CaSR (0.1% BSA) is 3.7 fold. Further, the “concentration above which skewness significantly increased for HCAR compared to CCL39” value on human CaSR (1% BSA) is listed as “above 2500 nM”; at human CaSR (no BSA and 0.1% BSA), “above 500 nM”. Also, the “fold mean fluorescence difference between CaSR+ and CaSR- cells” value worked out at 1.3 fold at human CaSR (50 nM) and 2.5 fold at human CaSR (200 nM). Further, the “concentration at which skewness values saturate” value on human CaSR (HCAR (CaSR+) cells, 0.1% BSA) stood at 500 nM.
As to `Cc1cc(C(=O)NCCCCCCNC(=O)Cc2ccc(N3CC[C@H](N[C@H](C)c4cccc5ccccc45)C3)cc2)ccc1C1=C2C=CC(=[N+](C)C)C=C2[Si](C)(C)c2cc(N(C)C)ccc21` [EvoSiR6], in the data set with HCAR cells, the “effect on viability at 50 μM” value is recorded as “significantly reduced” and the IC50 was 26 ± 2.3 µM. Moreover, the “fold increase in skewness of pixel intensity distribution, CaSR+ (HCAR) vs CaSR- (CCL39) cells” value at human CaSR (0.1% BSA) is 2.3 fold.
With `C[C@@H](N[C@H]1CCN(c2ccc(CC(=O)O)cc2)C1)c1cccc2ccccc12` [evocalcet], the “concentration below which no effect on viability” value in the data set on HCAR cells was < 50 µM. Further, the “reduction in skewness of pixel intensity distribution of EvoSiR4 labeling by competition” value on human CaSR (CaSR+ cells preincubated with 0–500 nM evocalcet in 0.1% BSA) was 55%.
